Results on six compounds are retold here after US10233168B2, “14-hydroxy-docosahexaenoic acid compounds” (The Brigham And Women's Hospital, Inc., priority 2008, dated 2019).

Assay [1] relates to peritoneal MΦs. The assay is described as follows: MΦ phagocytosis of FITC-labeled zymosan. It is filed as cell-based, mice. To be noted: for enhancement of MΦ phagocytosis of zymosan: 15 min compound, then FITC-labeled zymosan 30 min, 37° C. As to the method: (§1) The 7,14-dihydroxy-containing products were isolated from methyl formate fractions obtained from murine MΦs via RP-HPLC (Agilent 1100 series) using a Beckman C18 column (250 mm×10 mm×5 μm) and methanol/water (65/35; v/v) ramped to 85/15 (v/v) for 30 min. Their actions were assessed in murine zymosan A-induced peritonitis (19). Peritonitis was initiated by intraperitoneal (i.p.) administration of 1 mg zymosan A in 1 ml of sterile saline, and each compound was administered i.v. 5 min before zymosan. At 2 h, mice were sacrificed, and peritoneal exudates harvested (5 ml DPBS^−/− without calcium and magnesium), identified and enumerated by light microscopy and FACS. Resident MΦs were identified by FACS (8). To assess pro-resolving actions, peritoneal MΦs (24-well plate, 10^5 cells/well) from naïve mice were incubated with each compound (15 min, pH 7.45) followed by addition of FITC-labeled Zymosan A (30 min, 37° C.). Trypan blue was used to quench extracellular zymosan particles (1 min, 37° C.) followed by DPBS^+/+ (pH 7.45), and phagocytosis quantified using a Perkin-Elmer Victor^3.

The subject of assay [2] is PMN. Kind of assay: murine zymosan A-induced peritonitis, exudate PMN. It is filed as in vivo, mice. As to the method: as §1
The test system of assay [3] is peritoneal MΦs. Particulars: literature ref. 13; cited from earlier work.
The subject of assay [4] is lipoxygenase (LOX). The assay is described as follows: LC/MS/MS lipidomics of peritonitis exudates with LOX inhibitor. The class given is in vivo, mice. Particulars: exudates obtained with the LOX inhibitor, n=3. As to the method:
In view of the actions of specialized chemical mediators in resolution (6, 7), 17-HDHA was monitored as a biomarker of activation and conversion of endogenous DHA, as well as employed targeted lipidomics to query whether other pathways were operative (see FIG. 1). During this course of peritonitis, PMN rapidly entered, reaching max within 12 h. In this self-resolving system (19), PMN declined and were lost from exudates, thus defining resolution (FIG. 1). Unbiased targeted mediator lipidomics employing LC/MS/MS-based analyses were carried out with these exudates. In addition to 17S-HDHA, a marker of resolvin and protectin biosynthesis (6), endogenous DHA was converted to 14S-hydroxydocosahexaenoic acid (14S-HDHA).

Regarding `CC/C=C\C/C=C\CC(O)C=CC=CC=CC(O)C/C=C\CCC(=O)O` (stereo not drawn) [MaR1, 7,14-dihydroxydocosa-4Z,8,10,12,16Z,19Z-hexaenoic acid], the “enhancement of MΦ phagocytosis of zymosan” value (shortened to “enhancement”) in assay [1] (FIG. 3D) was “enhances phagocytosis”. The “potency compared to RvE1 and PD1” value in assay [1] (FIG. 3, inset comparison at 1 nM) is “comparable potency”. In addition, the “dose (as low as) that potently reduced infiltration of PMN into sites of inflammation” value in assay [2] (i.v. before i.p. zymosan, dose response FIG. 3C) is reported as 0.2 ng/mouse. Also, in assay [2] (nanogram quantities per mouse, FIG. 3A), the “anti-inflammatory action regulating PMN entry into zymosan-induced peritonitis” value is reported as “stopping PMN infiltration”.

Turning to `CC/C=C\C[C@H](O)\C=C/C=C/C=C/[C@H](O)C/C=C\C/C=C\CCC(=O)O` [PD1, 10R,17S-dihydroxydocosa-4Z,7Z,11E,13E,15Z,19Z-hexaenoic acid], the “concentration (as low as) enhancing MΦ phagocytosis” value in assay [3] was 1 nM.

For `CCCCC[C@H](O)/C=C/[C@H]1[C@H](O)CC(=O)[C@@H]1C/C=C\CCCC(=O)O` [PGE2, prostaglandin E2, reference compound], the “enhancement” value in assay [1] (FIG. 3D) was “did not enhance phagocytosis”.

Regarding `CC[C@@H](O)/C=C/C=C\C[C@@H](O)/C=C/C=C/C=C\[C@@H](O)CCCC(=O)O` [RvE1, 5S,12R,18R-trihydroxyeicosa-6Z,8E,10E,14Z,16E-pentaenoic acid], in assay [3], the “concentration (as low as) enhancing MΦ phagocytosis” value was 1 nM.

For the compound `CC/C=C\C/C=C\C[C@H](O)/C=C/C=C\C=C\[C@@H](O)C/C=C\CCC(=O)O` [double dioxygenation product, 7S,14S-dihydroxydocosa-4Z,8E,10Z,12E,16Z,19Z-hexaenoic acid], the “enhancement” value in assay [1] (FIG. 3D) was “active”. Further, the “potency in phagocytosis compared with the new product isolated from MΦs” value in assay [1] (direct comparison, FIG. 3D) is “less potent”. In assay [2] (0.1 ng dose per mouse, leukocytes enumerated after 2 h, FIG. 3B), the “PMN infiltration in zymosan-induced peritonitis” value is recorded as “reduced PMN infiltration”. For the same compound, in assay [2] (0.1 ng/mouse each, FIG. 3B), the “potency on PMN infiltration compared with the MΦ isolated material” value is “less potent”.

As to `O=c1ccc2cc(O)c(O)cc2o1` [esculetin], the “17S-HDHA and 14S-HDHA in peritonitis exudates” value in assay [4] is reported as “Neither product was identified”.
